Reference: PubChem BioAssay AID602464 (Sanford-Burnham Center for Chemical Genomics, 2012)
Calls of active or inactive are those of the source. Cut-off read from the data, not from the text of the source: active = IC50 below about 20 µM; inactive = the rest.

These compounds were tested on Gli-responsive luciferase reporter cells, SUFU pathway antagonism (assay: Gli-SUFU pathway antagonists, dose response, cell-based, luciferase luminescence, uHTS hits (AID 602464)).

| SMILES | IC50 |
| --- | --- |
| CCCCn1c(SCc2c(C)noc2C)nc2cc(S(N)(=O)=O)ccc21 | 4.21 µM |
| O=C(c1ccc(Cl)cc1)N1CCN(c2ccnc3cc(Cl)ccc23)CC1 | 3.01 µM |
| COc1ccccc1CN(Cc1nc2ccccc2c(=O)[nH]1)S(=O)(=O)c1ccc(C)cc1 | > 20 µM (inactive) |
| CCn1c(=O)cc(SCC(=O)N2CCN(C3CCCCC3)CC2)c2ccccc21 | 11.9 µM |
| COc1ccc(-c2c(C#N)c(N)nc3c2CCc2ccccc2-3)cc1OC | 6.7 µM |
| Cn1c(=O)c2c(nc(NCc3ccco3)n2Cc2ccc(Cl)cc2Cl)n(C)c1=O | 0.647 µM |
| CC1CN(S(=O)(=O)c2ccc(C(=O)Nc3nc(-c4cc5ccccc5o4)cs3)cc2)CC(C)O1 (stereo not drawn) | 1.26 µM |
| O=C(Nc1cc(N2CCCCC2)ncn1)c1ccccc1 | 0.294 µM |
| O=C(c1cc2sccc2n1Cc1ccc(F)cc1)N1CCN(c2nc3ccccc3s2)CC1 | 4.32 µM |
| COCCNC(=O)CSCc1nc(-c2ccc(SC)cc2)oc1C | 8.46 µM |
| Clc1ccc(-c2cn(-c3ccccc3)c3[n+]2CCS3)cc1 | 16.9 µM |
| CC(=O)Nc1ccc(S(=O)(=O)N(Cc2ccccc2)C(C)C)cc1 | 8.29 µM |
| CCc1ccc(CN(C)C(=O)c2cc(COc3cccc4cnccc34)on2)cc1 | 5.85 µM |
| CCCCCCn1c(=O)c(C(=O)Nc2cnccn2)c(O)c2ccccc21 | 9.19 µM |
| CCn1c(=NC(=O)CS(=O)(=O)c2ccccc2)sc2cccc(OC)c21 | 3.95 µM |
| Nc1ccc(Br)cc1-c1nc2ccccc2[nH]c1=O | 0.771 µM |
| COc1cc(C(=O)NC2CCN(C)CC2)ccc1Nc1ncc2c(n1)N(C1CCCCC1)CCC(=O)N2C | 1.6 µM |
| CC(=O)c1c(C)[nH]c(C(=O)OCC(=O)Nc2cccc(S(=O)(=O)N3CCCC3)c2)c1C | 6.51 µM |
| O=C(Nc1nc(-c2cccs2)cs1)c1cccc(S(=O)(=O)N2CCCCCC2)c1 | 2.28 µM |
| C(#Cc1ccccc1)C[N+]1(CC#Cc2ccccc2)CCCC1 | 5.3 µM |
| CCc1nc(N)nc(N)c1-c1ccc(N(C)Cc2ccccc2)c([N+](=O)[O-])c1 | 1.57 µM |
| Cc1ccc(NC(=O)/C=C/c2ccco2)cc1S(=O)(=O)N1CCCCCC1 | 2.12 µM |
| c1ccc(-c2c[n+]3c(n2-c2ccccc2)CCC3)cc1 | > 20 µM (inactive) |
| Cc1nc2sccn2c1-c1csc(NCc2ccccc2)n1 | 9.83 µM |
| CNc1ccccc1C(C)(C)c1cc(-c2cccc(Br)c2)no1 | 2.02 µM |
| NC(=O)c1ccccc1OCC(=O)N1CCC(Cc2ccccc2)CC1 | 5.61 µM |
| C/C(=N\NC(=O)C(=O)Nc1ccc(C)c(Cl)c1)c1ccncc1 | 1.51 µM |

| SMILES | IC50 |
| --- | --- |
| Cc1ccc(S(=O)(=O)NCCC2=CCCCC2)cc1C(N)=O | 8.71 µM |
| O=C(N[C@@H]1C/C=C\C[C@H](CC(=O)N(CCO)Cc2ccccc2)C(=O)NC[C@@H](c2ccccc2)OC1=O)OCC1c2ccccc2-c2ccccc21 | 6.27 µM |
| CCCCc1ccc(NC(=O)C(=O)NCCN2CCN(Cc3ccc([N+](=O)[O-])cc3)CC2)cc1 | 8.33 µM |
| COc1ccc(-n2c(-c3ccc(Cl)cc3)c[n+]3c2CCc2ccccc2-3)cc1 | 1.78 µM |
| COc1ccc(NS(=O)(=O)c2cccc(NC(=O)c3ccc(S(=O)(=O)N4CCCCCC4)cc3)c2)cc1 | 7.51 µM |
| Cc1nn(C)c(C)c1/C=C/C(=O)c1ccc(Cl)cc1Cl | 7.53 µM |
| CC(=O)Nc1cccc(OCC(=O)/C=C2\N(C)c3ccccc3C2(C)C)c1 | 4.73 µM |
| Brc1ccc(-c2c[n+]3c(n2-c2ccccc2)SCC3)cc1 | 6.98 µM |
| O=C(Nc1cc2c3c(c1)C1CCCC1CN3CC1CCCC21)c1ccc([N+](=O)[O-])cc1 (stereo not drawn) | 5.09 µM |
| O=C(c1cc(COc2cccc3cnccc23)on1)N1CCCC(CCCO)C1 (stereo not drawn) | 1.53 µM |
| Cc1sc2ncnc(NCc3cccs3)c2c1C | 8.05 µM |
| O=S(=O)(c1ccc2c(c1)nc(COc1ccc(Cl)cc1)n2CC1CCCO1)N1CCOCC1 (stereo not drawn) | 3.85 µM |
| CC(=O)c1c(C)[nH]c(C(=O)OCC(=O)Nc2sc3c(c2C#N)CCCC3)c1C | 5.59 µM |
| CCCCOc1ncnc2c1[nH]c1ccc(F)cc12 | 4.85 µM |
| CCOc1ccc(-n2c(O)c(/C=N/Nc3nc(C)cc(C)n3)c3ccccc3c2=O)cc1 | 7.13 µM |
| Cc1ccc(Cl)cc1N1CCN(C(=O)CSc2nnc3n2C(C)(C)Cc2ccccc2-3)CC1 | 7.5 µM |
| CC(C)(C)OC(=O)N1CCC(c2cc(-c3cccs3)n[nH]2)CC1 | > 20 µM (inactive) |
| C=CCOc1nc2c(c(=O)n(C)c(=O)n2C)n1Cc1ccc(Cl)cc1Cl | 10.3 µM |
| CC(C)(C)c1ccc(C(=O)NC(=S)Nc2ccc(N3CCOCC3)cc2)cc1 | 9.13 µM |
| CCn1c(/C=C/Nc2ccccc2)[n+](CC)c2ccc(Cl)cc21 | 18.1 µM |
| CCc1c(C)nc2ncnn2c1N1CCN(S(=O)(=O)c2ccc(OC)cc2)CC1 | 6.58 µM |
| CCCCOCCCNc1ncnc2c1[nH]c1ccccc12 | 3.17 µM |
| CC(C)=CCC/C(C)=C/CNC(=O)C[C@H]1C[C@H](C(=O)N2CCOCC2)[C@@]2(C)c3[nH]c4cc(CCC(=O)N(C)C)ccc4c3CCN2C1=O | 4.63 µM |
| CCOC(CN=c1nc(N(C)C)ss1)OCC | > 20 µM (inactive) |
| CCC(C)CCN1C(N(C)C)=NC[C@@H]1CC(C)C (stereo partly drawn) | 7.98 µM |
| C[C@@H]1COC(=O)[C@H](NC(=O)OCC2c3ccccc3-c3ccccc32)C/C=C\C[C@@H](CC(=O)N[C@@H](CO)Cc2ccccc2)C(=O)N1 | 7.8 µM |
